Reference: PubChem BioAssay AID2060485 (Molecular Pharmacology Branch, DTP, NCI, 2025)

Test system: A375 multi-cell spheroids with HUVEC/MSC, viability
Experiment: Anticancer human tumor A375 cell line growth inhibition [GQUAD];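 also: spheroids exposed to compounds for seven days before readout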
Conditions: for IC50: curve of first compound; for viability, T/C: stronger effect = lower value
Text: DNA G-quadruplex Stabilizer Agents in Combinations in Complex Spheroids
A high-throughput screen of multi-cell type tumor spheroids was designed to identify active combinations of DNA G-quadruplex stabilizer agents and targeted small molecules. Complex spheroids include a stromal component modeled by human endothelial cells (HUVEC) and fibroblasts modeled by human mesenchymal stem cells (MSCs). The concentration ranges selected for each drug and investigational agent were based upon clinically achievable concentrations if the clinical Cmax of the agent was known.
Compounds. The drugs and investigational agents: pidnarulex (CX-5461; NSC782164), APTO-253 (NSC789042), BRACO-19 (NSC847499), peposertib (NSC802822), ceralasertib (NSC780249), elimusertib (NSC800525), camonsertib (NSC841442), AZD-1390 (NSC803789), olaparib (NSC753686), talazoparib (NSC767125), ART-558 (NSC835418), sotorasib (NSC818433), MRTX-1133 (NSC836407), SN-38 (NSC673596), topotecan (NSC609699), etoposide (NSC141540), doxorubicin (NSC123127), gemcitabine (NSC613327), 5-fluorouracil (NSC19893), paclitaxel (NSC125973), vemurafenib (NSC761431), panobinostat (NSC761190), R-306465 (JNJ-16241199; NSC773264), adavosertib (NSC754352), TP-3654 (NSC805149), carboplatin (NSC241240), KSQ-4279 (NSC840948), and staurosporine (NSC755774) were obtained from the National Cancer Institute (NCI) Developmental Therapeutics Program Chemical Repository (34). The FDA-approved anticancer drug set is available from the NCI Developmental Therapeutics Program. […] The stock solutions were prepared in dimethyl sulfoxide (DMSO, Sigma-Aldrich, St. Louis, MO, cat. D2650) at 800-fold the tested concentration and stored at -70 degrees C prior to their use. All drugs and investigational agents were tested over a range starting from a high concentration at or near the clinical Cmax and decreasing in half-log increments. If the clinical Cmax for an agent had not been determined, the highest concentration tested was 10 microM.
2.3 Cell Culture. All cells were maintained in an incubator at 37 degrees C and 5% CO2 with 95% humidity. The PDC lines were cultured according to standard operating procedures established by the NCI PDMR. All PDCs were thawed and cultured in Matrigel-coated flasks prepared with a working solution of 1X Ham's F-12 nutrient mix, without supplementation (Invitrogen, cat. 11765054), 100 U/mL penicillin-streptomycin (Invitrogen, cat. 15140122), and 2.5% Matrigel (Corning Inc., cat. 354248) for the first three passages. The 857933-349-R-J2-PDC line was cultured in 6C/Colon 1B media, which includes advanced DMEM/F-12 (Thermo Fisher Scientific, cat. 12634028), 10 mM HEPES (Thermo Fisher Scientific, cat. 15630080), 1X GlutaMAX supplement (Thermo Fisher Scientific, cat. 35050061), 0.1 mg/mL primocin (InvivoGen, cat. ant-pm-2), 10% defined fetal bovine serum, heat inactivated (HyClone Laboratories Inc., cat. SH30070.03HI), 50% L-WRN conditioned media (ATCC, cat. CRL-3276), 1.25 mM N-Acetyl-L-cysteine (Sigma-Aldrich, cat. A9165), 10 mM nicotinamide (Sigma-Aldrich, cat. N0636), 1X B-27 supplement (Thermo Fisher Scientific, cat. 17504044), 1X N-2 supplement (Thermo Fisher Scientific, cat. 17502048), 10 microM Y-27632 dihydrochloride (Tocris Bioscience, cat. 1254), and 50 ng/mL human EGF recombinant protein (Thermo Fisher Scientific, cat. PHG0311). The 485176-168-R4-J1-PDC line was cultured in Panc media, which includes all 6C/Colon 1B media components plus 100 ng/mL human FGF-10 (Thermo Fisher Scientific, cat. 100-26), 500 nM SB-431542 (Selleckchem, cat. S1067), and gastrin (Tocris, cat. 3006).
[…]

What does the source list for `CC(C)n1c(=O)n(C)c2cnc3cc(F)c(-c4ccc(OCCCN5CCCCC5)nc4)cc3c21` + CN(C)c1ccc(Nc2c3ccc(NC(=O)CCN4CCCC4)cc3nc3cc(NC(=O)CCN4CCCC4)ccc23)cc1?
IC50 (second compound 0.0316 µM): > 10 µM; IC50 (second compound 0.1 µM): > 10 µM; IC50 (second compound 0.316 µM): > 10 µM; IC50 (second compound 1 µM): > 10 µM; IC50 (second compound 3.16 µM): > 10 µM; IC50 (second compound 10 µM): 4.83 µM; viability, T/C (second compound 0.0316 µM, first compound 0.0316 µM): 109%; viability, T/C (second compound 0.0316 µM, first compound 0.1 µM): 99.5%; viability, T/C (second compound 0.0316 µM, first compound 0.316 µM): 105%; viability, T/C (second compound 0.0316 µM, first compound 1 µM): 106%; viability, T/C (second compound 0.0316 µM, first compound 3.16 µM): 114%; viability, T/C (second compound 0.0316 µM, first compound 10 µM): 88.3%; viability, T/C (second compound 0.1 µM, first compound 0.0316 µM): 108%; viability, T/C (second compound 0.1 µM, first compound 0.1 µM): 106%; viability, T/C (second compound 0.1 µM, first compound 0.316 µM): 97.9%; viability, T/C (second compound 0.1 µM, first compound 1 µM): 98.5%; viability, T/C (second compound 0.1 µM, first compound 3.16 µM): 115%; viability, T/C (second compound 0.1 µM, first compound 10 µM): 91.2%; viability, T/C (second compound 0.316 µM, first compound 0.0316 µM): 103%; viability, T/C (second compound 0.316 µM, first compound 0.1 µM): 97.1%; viability, T/C (second compound 0.316 µM, first compound 0.316 µM): 103%; viability, T/C (second compound 0.316 µM, first compound 1 µM): 109%; viability, T/C (second compound 0.316 µM, first compound 3.16 µM): 116%; viability, T/C (second compound 0.316 µM, first compound 10 µM): 78.3%; viability, T/C (second compound 1 µM, first compound 0.0316 µM): 103%; viability, T/C (second compound 1 µM, first compound 0.1 µM): 102%; viability, T/C (second compound 1 µM, first compound 0.316 µM): 108%; viability, T/C (second compound 1 µM, first compound 1 µM): 108%; viability, T/C (second compound 1 µM, first compound 3.16 µM): 110%; viability, T/C (second compound 1 µM, first compound 10 µM): 78%; viability, T/C (second compound 3.16 µM, first compound 0.0316 µM): 97.4%; viability, T/C (second compound 3.16 µM, first compound 0.1 µM): 98.1%; viability, T/C (second compound 3.16 µM, first compound 0.316 µM): 104%; viability, T/C (second compound 3.16 µM, first compound 1 µM): 103%; viability, T/C (second compound 3.16 µM, first compound 3.16 µM): 107%; viability, T/C (second compound 3.16 µM, first compound 10 µM): 59.6%; viability, T/C (second compound 10 µM, first compound 0.0316 µM): 102%; viability, T/C (second compound 10 µM, first compound 0.1 µM): 96.4%; viability, T/C (second compound 10 µM, first compound 0.316 µM): 94.2%; viability, T/C (second compound 10 µM, first compound 1 µM): 89.4%; viability, T/C (second compound 10 µM, first compound 3.16 µM): 61%; viability, T/C (second compound 10 µM, first compound 10 µM): 30.5%
